Experimental data taken from patent US9469853B2, “MCPIP protection against osteoclast production” (University of Central Florida Research Foundation, Inc., priority 2005, dated 2016).

Key:
GRP78 and IRE-1 = experiment: ER stress markers GRP78 and IRE-1 expression; type: cell-based, human; details: for MCPIP-induced expression of GRP78: autophagy inhibition, MCPIP-transfected BMCs; for MCPIP-induced expression of GRP78 and IRE-1: pretreatment prior to MCPIP transfection, immunoblot; for expression of ER stress markers GRP78 and IRE-1: substance alone
Description: (§1) BMCs were cultured in α-MEM supplemented with 10% FBS containing 30 ng/ml M-CSF, 100 U/ml penicillin, and 100 μg/ml streptomycin in 5% CO2 at 37° C. OC precursor cells were induced after 3-day culture as Ha et al. (2010). At this point, cells were treated with 50 ng/ml MCP-1, inhibitors, or gene transfection. For inhibitor treatment, CeO2 (10 μM), apocynin (100 μg/ml), TUDC (100 μM), 3′-MA (50 μM), and LY294002 (20 μM) were added 6 h before gene transfection.
(§2) OC precursor cells were transfected with 1 μg GFP or MCPIP-GFP eukaryotic expression plasmids for gene-gain-function assay by using Fugene 6. For gene silencing, chemically synthesized siRNA duplex (100 nM) targeting MCPIP, IRE-1, or Beclin-1 was transfected into OC precursor cells using DharmaFECT (Dharmacon) for 24 h prior to transfection with MCPIP-GFP or GFP plasmid. A scrambled siRNA was used as a negative control. For knockdown expression of p47^PHOX, specific antisense (AS) (5′-[…]-3′ (SEQ ID NO: 5)) and sense (5′-[…]-3′ (SEQ ID NO: 6)) oligonucleotides were designed and synthesized by phosphorothioate modification by Integrated DNA Technologies. The oligonucleotides were transfected into OC precursor cells using Lipofectamine 2000 for 24 h before MCPIP-GFP plasmid transfection.
(§3) Cells were centrifuged after wash with PBS for twice. Cell pellet was resuspended in 1 ml Trizol reagent and the total RNA was extracted with chloroform and isopropanol, purified on Qiagen Mini-Prep column, and treated with DNase. High Capacity cDNA Reverse Transcription kit (Applied Biosystems) was used for cDNA preparation from 1 μg total RNA. qRT-PCR was done in triplicate in an ABI PRISM 7900HT Sequence Detection System with 5% cDNA product, primers (Supplementary Table S1) at 125 nM, and Fast SYBR Green Master Mix (Applied Biosystems). Relative quantitation of PCR products was done by the 2^−ΔΔCT method, CT=cycles to threshold, and ^ΔΔCT=(target gene CT)−(β-actin reference gene CT). Final data were described as fold changes against control cells.
(§4) Sodium dodecyl sulfate-polyacrylamide gel electrophoresis (SDS-PAGE) and western blotting were performed as described elsewhere. Samples (30 μg of protein) were subjected to 12% SDS-PAGE for most of target protein and 18% SDS-PAGE for LC3-II and LC3, transferred onto PVDF membranes (Millipore), and assayed for MCPIP, p47^PHOX, TRAP, CTSK, GRP78, IRE-1, Beclin-1, LC3-II, and β-actin or Fas (loading control) protein expression by chemiluminescence detection (Pierce ECL kit) according to the manufacturer's instructions. The specific protein bands were quantified by densitometric analysis with GS-690 Image Densitometer (Bio-Rad).

[1] = test system: TRAP and CTSK expression in BMCs; experiment: Expression of OC markers TRAP and CTSK (immunoblot, real-time PCR); type: cell-based, human; details: for MCPIP-induced expression of TRAP and CTSK: MCPIP-transfected BMCs, inhibitors 6 h (CeO2 10 μM, apocynin 100 μg/ml, TUDC 100 μM, 3′-MA 50 μM, LY294002 20 μM) or siRNA/antisense 24 h before transfection; for expression of TRAP and CTSK: substance alone, no other inducer, protein and mRNA
Description: as §1, §2, §3, §4

Beclin-1, LC3, Atg7 = experiment: Autophagy markers (Beclin-1, LC3 lipidation, Atg7) expression; type: cell-based, human; details: MCPIP-transfected BMCs
Description: as §1, §2, §3, §4

MCPIP = MCPIP expression (immunoblot, real-time PCR); type: cell-based, human
Description: as §1
(§5) OC precursor cells were transfected with 1 μg GFP or MCPIP-GFP eukaryotic expression plasmids for gene-gain-function assay by using Fugene 6. For gene silencing, chemically synthesized siRNA duplex (100 nM) targeting MCPIP, IRE-1, or Beclin-1 was transfected into OC precursor cells using DharmaFECT (Dharmacon) for 24 h prior to transfection with MCPIP-GFP or GFP plasmid. A scrambled siRNA was used as a negative control. […]
(§6) Cells were centrifuged after wash with PBS for twice. […] Relative quantitation of PCR products was done by the 2^−ΔΔCT method, CT=cycles to threshold, and ^ΔΔCT=(target gene CT)−(β-actin reference gene CT). […]
(§7) Sodium dodecyl sulfate-polyacrylamide gel electrophoresis (SDS-PAGE) and western blotting were performed as described elsewhere. […] The specific protein bands were quantified by densitometric analysis with GS-690 Image Densitometer (Bio-Rad).

p47PHOX = p47PHOX expression and membrane translocation (immunoblot); type: cell-based, human
Description: as §1
OC precursor cells were transfected with 1 μg GFP or MCPIP-GFP eukaryotic expression plasmids for gene-gain-function assay by using Fugene 6. […]
OC precursor cells were harvested, sonicated on ice in a buffer containing 100 mM KCl, 3 mM NaCl, 3.5 mM MgCl2, 10 mM HEPES, 1 mM EGTA, 10 μg/ml pepstatin, 10 μg/ml leupeptin, and 0.5 mM PMSF; lysates were centrifuged at 600 g for 10 min at 4° C. to remove nuclei and unbroken cells. […] Membranes were washed in the same buffer, quantified (Lemarie), and resuspended in Laemmli sample buffer, before western blot analysis.
as §7

ROS production in BMCs = experiment: ROS production (DHR123 oxidation); type: cell-based, human
Description: as §1
as §2, with “The oligonucleotides were transfected into OC precursor cells using Lipofectamine 2000 for 24 h before MCPIP-GFP plasmid transfection.” left out
Oxidant production in OC precursor cells was assessed by measuring the oxidation of intracellular DHR123 (Molecular Probes) as described previously (Younce et al., 2010). ROS production was expressed as folds compared with control cells expressing GFP alone.

[2] = test system: human bone marrow mononuclear cells (BMCs); experiment: TRAP staining, TRAP-positive OC precursor cell formation; type: cell-based; details: substance alone, 50 ng/ml MCP-1, human BMCs
Description: as §1, §5
Three days after MCP-1 treatment or 4 days after MCPIP transfection, cells were fixed for histological staining for TRAP as described previously (Kim et al., 2006a). […] On each coverslip, totally at least 500 cells were examined and the TRAP-positive cells were counted in 3-5 fields (20× objective), and the percentage of TRAP-positive cells was calculated.

[3] = test system: αV integrin, β3 integrin, and MMP9; experiment: Expression of OC functional markers αV integrin, β3 integrin, MMP9; type: cell-based, human; details: substance alone
Description: as §1, §5, §6, §7

[4] = pretreatment prior to MCPIP transfection

## O=c1cc(N2CCOCC2)oc2c(-c3ccccc3)cccc12 [LY294002]
GRP78 and IRE-1
  MCPIP-induced expression of GRP78: no effect

## C[C@H](CCC(=O)NCCS(=O)(=O)O)[C@H]1CC[C@H]2[C@@H]3[C@@H](O)C[C@@H]4C[C@H](O)CC[C@]4(C)[C@H]3CC[C@]12C [TUDC, tauroursodeoxycholate]
[1]
  MCPIP-induced expression of TRAP and CTSK: significantly inhibited
Beclin-1, LC3, Atg7
  MCPIP-induced expression of Beclin-1: inhibited significantly
MCPIP; MCPIP-transfected BMCs
  expression of MCPIP after MCPIP transfection: did not affect
GRP78 and IRE-1
  MCPIP-induced expression of GRP78 and IRE-1: inhibits

## tunicamycin
[1]
  expression of TRAP and CTSK: induced
GRP78 and IRE-1
  expression of ER stress markers GRP78 and IRE-1: induced

## COc1cc(C(C)=O)ccc1O [apocynin]
[1]
  MCPIP-induced expression of TRAP and CTSK: suppressed
Beclin-1, LC3, Atg7
  MCPIP-induced expression of Beclin-1: inhibited significantly
p47PHOX; [4]
  MCPIP-induced expression and membrane translocation of p47PHOX: inhibited
ROS production in BMCs; [4]
  MCPIP-induced ROS production: suppressed
GRP78 and IRE-1
  MCPIP-induced expression of GRP78 and IRE-1: attenuated

## MCP-1: human MCP-1, a CC chemokine, purchased from Invitrogen
[2]
  TRAP-positive OC precursor cell formation: induced
[1]
  expression of TRAP and CTSK: induced
p47PHOX; substance alone
  expression of p47PHOX and its translocation from the cytoplasm into the membrane: increased
[3]
  expression of αV integrin, β3 integrin, and MMP9: did not affect
ROS production in BMCs; substance alone, DHR123 staining
  ROS generation: remarkably increased
MCPIP; substance alone, 50 ng/ml MCP-1
  MCPIP protein and mRNA levels: induced up-regulation
GRP78 and IRE-1
  expression of ER stress markers GRP78 and IRE-1: induced

## C/C=C(/C)C(=O)O[C@H]1C(C)=C2[C@H]([C@@H]1OC(=O)CCCCCCC)[C@@](C)(OC(C)=O)C[C@H](OC(=O)CCC)[C@@]1(O)[C@H]2OC(=O)[C@@]1(C)O [thapsigargin]
[1]
  expression of TRAP and CTSK: induced
GRP78 and IRE-1
  expression of ER stress markers GRP78 and IRE-1: induced

## Cn1cnc(N)c2ncnc1-2 [3′-MA, 3′-methyladenine]
[1]
  MCPIP-induced expression of TRAP and CTSK: significantly inhibited
Beclin-1, LC3, Atg7
  MCPIP-induced expression of Beclin-1: significantly inhibited
Beclin-1, LC3, Atg7; immunoblot
  lipidation of LC-3: inhibited
GRP78 and IRE-1
  MCPIP-induced expression of GRP78: no effect
